Assay results published in US7598419B2, “Compounds for modulating cell proliferation” (HSC Research and Development Limited Partnership, priority 2004, dated 2009).

Experiments:
[1] = tested on: cells of the myeloid lineage; settings: in vitro, ex vivo and in vivo; cited from earlier work
[2] = tested on: a variety of cancer cells; experiment: Growth of cancer cells in culture (summary over cell types); format: cell-based; settings: for effectiveness against a variety of cell types: Acute Lymphoblastic Leukemia, Philadelphia positive Leukemia, Acute Myeloid Leukemia
[3] = tested on: Philadelphia positive ALL, AML and lymphoma; experiment: High dose ex vivo / in vitro purging assays (summary); format: cell-based
normal bone marrow cells [4] = experiment: In vitro purging of normal bone marrow; format: cell-based, human; settings: 50 μM, seven hours exposure; FIG. 21
Procedure: Heparinized bone marrow cells were layered over Percoll (1.077 gm/ml) (Pharmacia Fine Chemical, Piscataway N.J.) and centrifuged at 400 g at 4° C. for 10 minutes to remove neutrophils and RBCs.
(§1) For the purging process, the cells were resuspended at 1×10^6/ml in complete medium with or without 50 μM CR4. The cells were incubated with the CR4 for two and a half hours at 37° C., 5% CO2. At the end of this period the cells were thoroughly washed in medium to remove CR4 and then cultured at 2×10^5 cells/ml in IMDM (OCI, Toronto) containing 0.9% (vol/vol) methylcellulose supplemented with 30% FCS (Cansera Rexdale, ON.) or normal human plasma, a cocktail of cytokines containing G-CSF (10 ng/ml, Amgen), IL-3 (40 U/ml, Immunex), MGF (50 ng/ml, Immunex), Erythropoietin (2 u/ml, Epprex) or TPO (10 ng/ml, Amgen) and 5×10^−5M β-2-mercaptoethanol. The culture mixture was plated in 1 ml volumes into 35 mm petri dishes and incubated at 37° C., 5% CO2 in a humidified atmosphere. All cultures were evaluated at 14 days for the number of BFU-E colonies (defined as aggregates of more than 500 hemaglobinized cells or, 3 or more erythroid subcolonies), CFU-C colonies (defined as granulocyte or monocyte-macrophage cells or both) and CFU-GEMM colonies (a mixed population comprising of all elements).
as §1, with “μM CR11.” for “μM CR4.”, “the tryrphostin” for “the CR4”, “for seven” for “for two and a half”, “remove CR11” for “remove CR4”, “methylcellulose supplementd” for “methylcellulose supplemented”, “500 hemoglobinized” for “500 hemaglobinized”

[5] = tested on: Philadelphia positive acute lymphoblastic leukemia cells; experiment: In vitro purging of Philadelphia positive ALL with CR11; format: cell-based, human; settings: 50 μM, 7 hours exposure; FIG. 22
Procedure: For the purging assay, the cells were resuspended in complete medium with or without CR11 as indicated and incubated at 37° C., 5% CO2 for 0-7 hours. Cells were then washed thoroughly with medium to remove the CR11, resuspended and plated in 1 ml volumes, in the absence of exogenous growth factors, into 35 mm petri dishes (Nunc, Gibco) containing alpha MEM (Gibco) plus 20% FCS (Cansera Rexdale, ON.) in 0.9% (vol/vol) methylcellulose (Fluka, Switzerland). Cultures were set at 37° C., 5% CO2 in a humidified atmosphere. Colonies consisting of more than 20 cells were counted at 9 days or earlier using an inverted microscope.

normal bone marrow cells [6] = experiment: CFU-GEMM assay: normal bone marrow differentiation in culture; format: cell-based, human
Procedure: (§2) The CFU-GEMM assay was performed according to Fauser and Messner (1978, Blood, 52(6) 143-8) and Messner and Fausser (1980, Blut, 41(5) 327-33) with some variations. In brief, heparinized bone marrow cells were layered over Percoll (1.077 gm/ml) (Pharmacia Fine Chemical, Piscataway N.J.) and centrifuged at 400 g at 4° C. for 10 minutes to remove neutrophils and RBCs. The fractionated BM cells at 2×10^5 cells/ml were cultured in IMDM (OCI, Toronto) containing 0.9% (vol/vol) methylcellulose supplementd with 30% FCS (Cansera Rexdale, ON.) or normal human plasma, a cocktail of cytokines containing G-CSF (10 ng/ml, Amgen), IL-3 (40 U/ml, Immunex), MGF (50 ng/ml, Immunex), Erythropoietin (2 u/ml, Epprex) or TPO (10 ng/ml, Amgen), 5×10^−5M β-2-mercaptoethanol and the specified concentration of CR4. The culture mixture was plated in 1 ml volumes into 35 mm petri dishes and incubated at 37° C., 5% CO2 in a humidified atmosphere. All cultures were evaluated at 14 days for the number of BFU-E colonies (defined as aggregates of more than 500 hemoglobinized cells or, 3 or more erythroid subcolonies), CFU-GM colonies (defined as granulocyte or monocyte-macrophage cells or both), CFU-Meg colonies (comprising 4 or more megakaryocytes) and CFU-GEMM colonies (a mixed population comprising of all elements).
as §2, with “1243-8)” for “143-8)”, “concentrations” for “concentration”, “CR19.” for “CR4.”, “hemaglobinized” for “hemoglobinized”, “subcolonies) and CFU-C” for “subcolonies), CFU-GM”, “both).” for “both), CFU-Meg colonies (comprising 4 or more megakaryocytes) and CFU-GEMM colonies (a mixed population comprising of all elements).”
as §2, with “1243-8)” for “143-8)”, “variations (British Journal of Haematology, 1992, 80, p 40-48).” for “variations.”, “test compound.” for “CR4.”, “CO2,” for “CO2”, “subcolonies) and CFU-C” for “subcolonies), CFU-GM”, “both).” for “both), CFU-Meg colonies (comprising 4 or more megakaryocytes) and CFU-GEMM colonies (a mixed population comprising of all elements).”

[7] = tested on: Philadelphia positive acute lymphoblastic leukemia (Ph+ ALL) cells; experiment: Colony assay of Philadelphia positive ALL cells in methylcellulose culture; format: cell-based, human
Procedure: Ph+ ALL cells were plated in 1 ml volumes, in the absence of exogenous growth factors, into 35 mm petri dishes (Nunc, Gibco) containing alpha MEM (Gibco) plus 10-20% FCS (Cansera Rexdale, ON.) in 0.9% (vol/vol) methylcellulose (Fluka, Switzerland) with the indicated concentrations of CR4. Cultures were set at 37° C., 5% CO2 in a humidified atmosphere. Colonies consisting of more than 20 cells were counted at 12 days or earlier using an inverted microscope.
ALL cells were plated in 1 ml volumes, in the absence of exogenous growth factors, into 35 mm petri dishes (Nunc, Gibco) containing alpha MEM (Gibco) plus 20% FCS (Cansera Rexdale, ON.) in 0.9% (vol/vol) methylcellulose (Fluka, Switzerland) and the indicated concentrations of compound. Cultures were set at 37° C., 5% CO2 in a humidified atmosphere. Colonies consisting of more than 20 cells were counted at 12 days or earlier using an inverted microscope.
ALL cells were plated in 1 ml volumes, in the absence of exogenous growth factors, into 35 mm petri dishes (Nunc, Gibco) containing alpha MEM (Gibco) plus 20% FCS (Cansera Rexdale, ON.) in 0.9% (vol/vol) methylcellulose (Fluka, Switzerland) and the indicated concentrations of CR24. Cultures were set at 37° C., 5% CO2 in a humidified atmosphere. Colonies consisting of more than 20 cells were counted at 9 days or earlier using an inverted microscope.
ALL cells were plated in 1 ml volumes, in the absence of exogenous growth factors, into 35 mm petri dishes (Nunc, Gibco) containing alpha MEM (Gibco) plus 20% FCS (Cansera Rexdale, ON.) in 0.9% (vol/vol) methylcellulose (Fluka, Switzerland) and the indicated concentrations of CR19. Cultures were set at 37° C., 5% CO2 in a humidified atmosphere. Colonies consisting of more than 20 cells were counted at 9 days or earlier using an inverted microscope.

[8] = low nanomolar doses, long term exposure

Q: With `COc1cc(/C=C/C=C(C#N)C#N)cc(OC)c1O` [CR7, (E,E)-2-cyano-3-(3,5-dimethoxy-4-hydroxystyryl)acrylonitrile] as the compound, how does the promotion of myelopoiesis [1] read?
A: Its promotion of myelopoiesis is “capable of promoting myelopoiesis”.

Q: With `COc1cc(/C=C/C=C(\C#N)C(=O)NCCc2ccccc2)cc(OC)c1O` [CR8, (E,E)-2-(Phenylethylaminocarbonyl)-3-(3,5-dimethoxy-4-hydroxystyryl)acrylonitrile] as the compound, how does the promotion of myelopoiesis [1] read?
A: The promotion of myelopoiesis was “capable of promoting myelopoiesis”.

Q: For `COc1cc(/C=C/C=C(\C#N)C(=O)NCc2ccc(O)c(O)c2)cc(OC)c1O` [CR11, (E,E)-2-(3,4-Dihydroxybenzylaminocarbonyl)-3-(3,5-dimethoxy-4-hydroxystyryl)acrylonitrile], which “effectiveness against a variety of cell types” value [2] is on record?
A: The value was “highly effective”.

Q: And the “effectiveness as ex vivo purging agents” value [3]?
A: The value was “effective”.

Q: And the “BFU-E, CFU-GEMM and CFU-C colonies after purging” value (normal bone marrow cells [4])?
A: Its value is “all normal”.

Q: What about the “colony formation of normal bone marrow after purging” value (normal bone marrow cells [4]) of the same compound?
A: The value was “did not result in any significant inhibition”.

Q: What about the “killing of Ph+ ALL cells after purging” value [5] of the same compound?
A: The value was “complete killing”.

Q: What about the promotion of myelopoiesis [1] of the same compound?
A: The promotion of myelopoiesis was “capable of promoting myelopoiesis”.

Q: Which “effectiveness against a variety of cell types” value [2] does the source give for `N#C/C(=C\C=C\c1ccccc1)C(=O)NCc1ccc(O)c(O)c1` [CR19, (E,E)-2-(3,4 Dihydroxybenzylaminocarbonyl)-3-styrylacrylonitrile] here?
A: The value was “highly effective”.

Q: What about the “toxicity to cancer cells” value [2, 8] of the same compound?
A: Its value is “highly toxic”.

Q: What about the promotion of myelopoiesis [1] of the same compound?
A: Its promotion of myelopoiesis is “capable of promoting myelopoiesis”.

Q: What about the CFU-C colony formation (normal bone marrow cells [6]; 2.5 μM, 14 days, FIG. 12) of the same compound?
A: Its CFU-C colony formation is “boosted”.

Q: What about the “development of BFU-E colonies” value (normal bone marrow cells [6]; 2.5 μM, 14 days, FIG. 12) of the same compound?
A: The value was “significant inhibition”.

Q: What about the BFU-E colonies (normal bone marrow cells [6]; 5 μM, 14 days, FIG. 12) of the same compound?
A: The BFU-E colonies was “virtually absent”.

Q: And the CFU-C colony formation (normal bone marrow cells [6]; 5 μM, 14 days, FIG. 12)?
A: Its CFU-C colony formation is “stimulatory effect disappeared”.

Q: And the “normal cell growth and differentiation” value (normal bone marrow cells [6]; [8])?
A: The value was “unaffected”.

Q: What does the source list for `N#C/C(=C\C=C\c1ccc(O)c(O)c1)C(=O)NCc1ccc(O)c(O)c1` [CR21, (E,E)-2-(3,4 Dihydroxybenzylaminocarbonyl)-3-(3,4-dihydroxystyryl)acrylonitrile]?
A: concentrations displaying inhibition of Ph+ ALL cell growth ([7]; Example 42, FIG. 8, colonies at 12 days): 5 µM; BFU-E colony formation (normal bone marrow cells [6]; 20 μM, 14 days, FIG. 13): caused inhibition

Q: Which “lowest concentration effective against Ph+ ALL cells” value ([7]; colonies at 9 days, FIG. 10) does the source give for `COc1cc(/C=C/C=C(\C#N)C(=O)NCCO)cc(OC)c1O` [CR24, (E,E)-2-(β-Ethanolaminocarbonyl)-3-(3,5-dimethoxy-4-hydroxystyryl)acrylonitrile] here?
A: Its value is 0.5 µM.

Q: And the “bone marrow colony formation” value (normal bone marrow cells [6]; 10 or 20 μM, 14 days, FIG. 13)?
A: Its value is “minimal inhibition”.

Q: With `COc1cc(/C=C/C=C(\C#N)C(=O)NCc2ccccc2)ccc1O` [CR56, (E,E) 2-(benzylaminocarbonyl)-3-(3-methoxy-4-hydroxystyryl)acrylonitrile] as the compound, how does the promotion of myelopoiesis [1] read?
A: The promotion of myelopoiesis was “capable of promoting myelopoiesis”.
